Experimental data: patent US20060183902A1, “Dihydroindolyl methanones as alpha 1a/1d adrenoreceptor modulators for the treatment of benign prostatic hypertrophy and lower urinary tract symptoms” (priority 2005, published 2006)
pKi: −log10 of the molar value. “And” between values parts separate entries of the source, which are not always exact repeats. Identical values can stand only once.

How the values were obtained:
[1] = molecular target: T1, α1a-AR (Homo sapiens, UniProt P35348); test: α1-Adrenergic receptor radio-ligand (125I-HEAT) binding assay, α1a subtype; conditions: COS-7 cell membranes transfected with α1a-AR, 125I-HEAT 50 pM; read-out: Receptor Binding, Ki α1a-AR
T1 construct: expressed in transfected cells; host or cells: COS-7
T1 sequence (P35348 1-466): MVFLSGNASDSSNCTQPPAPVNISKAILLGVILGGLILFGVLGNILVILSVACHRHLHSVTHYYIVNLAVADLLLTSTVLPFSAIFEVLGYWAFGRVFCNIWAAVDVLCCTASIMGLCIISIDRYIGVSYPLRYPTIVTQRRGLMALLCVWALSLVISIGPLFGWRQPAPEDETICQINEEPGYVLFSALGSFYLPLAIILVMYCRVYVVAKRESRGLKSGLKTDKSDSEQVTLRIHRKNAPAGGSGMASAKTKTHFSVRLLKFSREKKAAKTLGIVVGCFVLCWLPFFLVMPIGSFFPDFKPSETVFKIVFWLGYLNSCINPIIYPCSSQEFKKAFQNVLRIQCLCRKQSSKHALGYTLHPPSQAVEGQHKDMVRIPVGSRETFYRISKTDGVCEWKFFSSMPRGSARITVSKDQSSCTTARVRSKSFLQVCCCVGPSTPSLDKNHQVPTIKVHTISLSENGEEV
Experimental: (§1) Membranes were prepared from COS-7 cells (African Green monkey kidney SV40-transformed cells) that had been transfected with one of the three α1-AR subtypes by the following method:
(§2) COS cells from ten 100 mm tissue culture plates were scraped into a 5 mL volume of TE (a mixture of 50 mM tris(hydroxymethyl)aminomethane hydrochloride (Tris-HCl) and 5 mM ethylenediaminetetraacetic acid (EDTA) at pH 7.4). The cell suspension was disrupted with a Brinkman Polytron (at a setting of 8) for 10 sec. The disrupted cells were centrifuged at 1000×g for 10 min at 4° C. Supernatants were centrifuged at 34,500×g for 20 min at 4° C. The membrane pellets were suspended in a 2 mL volume of TNE (a mixture of 50 mM Tris-HCl, 5 mM EDTA and 150 mM NaCl at pH7.4). An aliquot of the membrane suspension was stored at −70° C. until use. The protein concentration was determined using a BioRad “DC” protein assay kit following membrane solubilization with Triton X-100.
(§3) Triplicate determinations of radio-ligand binding in the presence of increasing concentrations of testing compound were made. The reagents were added to 96-well polypropylene plate wells. Each assay well contained 140 μL TNE, 25 μL ^125I-2-(β-4-hydroxyplenyl)ethylaminomethyltetralone (^125I-HEAT) (specific activity 2200 Ci/mmol, Dupont-New England Nuclear, 50 pM final), 10 μL testing compound dissolved in dimethyl sulfoxide (DMSO) (1 pM to 10 μM in half-log increments, final), and 25 μL appropriate α1-AR membrane subtype suspension in TNE (0.5 ng/μL for the α1a and α1b subtypes and 13 ng/μL for the α1d subtype). The plate was incubated at rt for 1 hr. The contents of the wells were filtered through a glass filter (type C) (GF/C) membrane Unifilter plate (Packard Instruments) using the Packard Filtermate cell harvester. The filter plates were dried in a vacuum oven for 30 min at 40° C. 25 μL Microscint 20 liquid scintillation fluid (Packard Instuments) was added to each well. The radioactive content was analyzed in the TopCount microplate scintillation counter (Packard Instruments).
(§4) The Ki values (in nM) shown in Table 1 were determined using GraphPad Prism software.

[2] = molecular target: T2, α1b-AR (Homo sapiens, UniProt P35368); test: α1-Adrenergic receptor radio-ligand (125I-HEAT) binding assay, α1b subtype; conditions: COS-7 cell membranes transfected with α1b-AR, 125I-HEAT 50 pM; read-out: Receptor Binding, Ki α1b-AR
T2 construct: expressed in transfected cells; host or cells: COS-7
T2 sequence (P35368 1-520): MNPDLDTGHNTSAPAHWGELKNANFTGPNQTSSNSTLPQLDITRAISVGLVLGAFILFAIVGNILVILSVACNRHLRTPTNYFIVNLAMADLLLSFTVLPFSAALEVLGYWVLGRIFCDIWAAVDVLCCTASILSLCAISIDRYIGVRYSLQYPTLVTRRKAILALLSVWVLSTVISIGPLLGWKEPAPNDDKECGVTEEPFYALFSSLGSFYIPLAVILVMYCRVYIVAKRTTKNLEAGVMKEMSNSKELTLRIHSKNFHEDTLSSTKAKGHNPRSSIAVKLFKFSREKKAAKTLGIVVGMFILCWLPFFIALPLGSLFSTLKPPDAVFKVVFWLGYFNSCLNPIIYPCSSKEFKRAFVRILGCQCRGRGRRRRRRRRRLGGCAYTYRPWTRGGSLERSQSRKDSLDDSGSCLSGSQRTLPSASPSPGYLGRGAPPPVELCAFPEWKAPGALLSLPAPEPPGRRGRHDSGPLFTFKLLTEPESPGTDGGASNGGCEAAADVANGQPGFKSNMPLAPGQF
Experimental: as §1, §2, §3, §4

[3] = molecular target: T3, α1d-AR (Homo sapiens, UniProt P25100); test: α1-Adrenergic receptor radio-ligand (125I-HEAT) binding assay, α1d subtype; conditions: COS-7 cell membranes transfected with α1d-AR, 125I-HEAT 50 pM; read-out: Receptor Binding, Ki α1d-AR
T3 construct: expressed in transfected cells; host or cells: COS-7
T3 sequence (P25100 1-572): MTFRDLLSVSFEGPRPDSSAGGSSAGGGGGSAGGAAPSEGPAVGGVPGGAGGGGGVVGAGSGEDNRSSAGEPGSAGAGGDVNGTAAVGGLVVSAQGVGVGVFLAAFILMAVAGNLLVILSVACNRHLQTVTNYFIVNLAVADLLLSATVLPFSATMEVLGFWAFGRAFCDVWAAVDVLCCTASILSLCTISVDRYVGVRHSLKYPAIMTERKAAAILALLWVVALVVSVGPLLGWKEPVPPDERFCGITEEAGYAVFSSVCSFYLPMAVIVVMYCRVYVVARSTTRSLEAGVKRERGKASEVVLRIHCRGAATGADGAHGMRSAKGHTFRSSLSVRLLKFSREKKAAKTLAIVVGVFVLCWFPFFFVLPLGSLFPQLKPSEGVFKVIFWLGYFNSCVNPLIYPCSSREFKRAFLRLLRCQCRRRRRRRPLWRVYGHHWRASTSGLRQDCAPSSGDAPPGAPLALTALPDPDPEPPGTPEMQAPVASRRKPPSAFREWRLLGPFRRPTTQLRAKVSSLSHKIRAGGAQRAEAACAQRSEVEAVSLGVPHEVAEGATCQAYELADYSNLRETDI
Experimental: as §1, §2, §3, §4

Row | SMILES | pKi [1] | pKi [2] | pKi [3]
1 | Cc1ccc(S(=O)(=O)Nc2ccc3c(c2)N(C(=O)c2cccc(CN4CCN(c5ccccc5OC(C)C)CC4)c2)CC3)cc1 [Cpd 46, N-(1-{3-[4-(2-isopropoxy-phenyl)-piperazin-1-ylmethyl]-benzoyl}-2,3-dihydro-1H-indol-6-yl)-4-methyl-benzenesulfonamide] | 8.23 | 6.62 | 8.25
2 | CCS(=O)(=O)Nc1ccc2c(c1)N(C(=O)c1cccc(CN3CCN(c4ccccc4OC(C)C)CC3)c1)CC2 [Cpd 47, ethanesulfonic acid (1-{3-[4-(2-isopropoxy-phenyl)-piperazin-1-ylmethyl]-benzoyl}-2,3-dihydro-1H-indol-6-yl)-amide] | 8.64 | 6.64 | 8.59
3 | CC(C)Oc1ccccc1N1CCN(Cc2cccc(C(=O)N3CCc4ccc(NC(=O)c5ccc(F)cc5)cc43)c2)CC1 [Cpd 48, 4-fluoro-N-(1-{3-[4-(2-isopropoxy-phenyl)-piperazin-1-ylmethyl]-benzoyl}-2,3-dihydro-1H-indol-6-yl)-benzamide] | 7.13 | 6.05 | 8.22
4 | CC(C)Oc1ccccc1N1CCN(Cc2cccc(C(=O)N3CCc4ccc(NC(N)=O)cc43)c2)CC1 [Cpd 49, (1-{3-[4-(2-isopropoxy-phenyl)-piperazin-1-ylmethyl]-benzoyl}-2,3-dihydro-1H-indol-6-yl)-urea] | 7.85 | 6.45 | 7.89
5 | COc1ccccc1C1CCN(Cc2ccc(C(=O)N3CCc4ccccc43)cc2)CC1 [Cpd 50, (2,3-dihydro-indol-1-yl)-{4-[4-(2-methoxy-phenyl)-piperidin-1-ylmethyl]-phenyl}-methanone] | 8.11 | 6.34 | 7.49
6 | CC(C)Oc1ccccc1C1CCN(Cc2cccc(C(=O)N3CCc4ccccc43)c2)CC1 [Cpd 51, (2,3-dihydro-indol-1-yl)-{3-[4-(2-isopropoxy-phenyl)-piperidin-1-ylmethyl]-phenyl}-methanone] | 9.10 | 6.97 | 8.80
7 | CC(C)Oc1ccccc1CN1CCN(Cc2ccc(C(=O)N3CCc4ccccc43)cc2)CC1 [Cpd 52, (2,3-dihydro-indol-1-yl)-{4-[4-(2-isopropoxy-benzyl)-piperazin-1-ylmethyl]-phenyl}-methanone] | 6.91 | 5.76 | 6.80
8 | COc1ccccc1CN1CCN(Cc2ccc(C(=O)N3CCc4ccccc43)cc2)CC1 [Cpd 53, (2,3-dihydro-indol-1-yl)-{4-[4-(2-methoxy-benzyl)-piperazin-1-ylmethyl]-phenyl}-methanone] | 7.09 | 6.98 | 7.02
9 | O=C(c1ccc(CN2CCN(c3ccccc3OCC(F)(F)F)CC2)cc1)N1CCc2ccccc21 [Cpd 55, (2,3-dihydro-indol-1-yl)-(4-{4-[2-(2,2,2-trifluoro-ethoxy)-phenyl]-piperazin-1-ylmethyl}-phenyl)-methanone] | 7.59 | 6.51 | 7.37
10 | CC(C)Oc1ccccc1CN1CCN(Cc2cccc(C(=O)N3CCc4ccccc43)c2)CC1 [Cpd 56, (2,3-dihydro-indol-1-yl)-{3-[4-(2-isopropoxy-benzyl)-piperazin-1-ylmethyl]-phenyl}-methanone] | 5.92 | 6.18 | 5.72
11 | CC(C)Oc1ccccc1C1CCN(Cc2cccc(C(=O)N3CCc4ccc(NCc5ccccc5F)cc43)c2)CC1 [Cpd 57, [6-(2-fluoro-benzylamino)-2,3-dihydro-indol-1-yl]-{3-[4-(2-isopropoxy-phenyl)-piperidin-1-ylmethyl]-phenyl}-methanone] | 8.74 | 6.63 | 8.85
12 | CC(C)Oc1ccccc1C1CCN(Cc2cccc(C(=O)N3CCc4ccc(NS(=O)(=O)c5c(F)cccc5F)cc43)c2)CC1 [Cpd 58, 2,6-difluoro-N-(1-{3-[4-(2-isopropoxy-phenyl)-piperidin 1-ylmethyl]-benzoyl}-2,3-dihydro-1H-indol-6-yl)-benzenesulfonamide] | 9.10 and 9.30 | 6.63 and 6.59 | 8.72 and 9.00
13 | COc1ccccc1C1CCN(Cc2cccc(C(=O)N3CCc4ccc(NCc5ccccc5F)cc43)c2)CC1 [Cpd 59, [6-(2-fluoro-benzylamino)-2,3-dihydro-indol-1-yl]-{3-[4-(2-methoxy-phenyl)-piperidin-1-ylmethyl]-phenyl}-methanone] | 8.08 | 7.00 | 8.96
14 | CC(C)Oc1ccccc1C1CCN(Cc2cccc(C(=O)N3CCc4ccc(NC(=O)Nc5c(F)cccc5F)cc43)c2)CC1 [Cpd 60, 1-(2,6-difluoro-phenyl)-3-(1-{3-[4-(2-isopropoxy-phenyl)-piperidin-1-ylmethyl]-benzoyl}-2,3-dihydro-1H-indol-6-yl)-urea] | 9.40 | 6.92 | 9.40
15 | COc1ccccc1C1CCN(Cc2cccc(C(=O)N3CCc4ccc(NS(=O)(=O)c5c(F)cccc5F)cc43)c2)CC1 [Cpd 61, 2,6-difluoro-N-(1-{3-[4-(2-methoxy-phenyl)-piperidin-1-ylmethyl]-benzoyl}-2,3-dihydro-1H-indol-6-yl)-benzenesulfonamide] | 7.81 | 6.82 | 8.68
16 | COc1ccccc1CN1CCN(Cc2cccc(C(=O)N3CCc4ccccc43)c2)CC1 [Cpd 64, (2,3-dihydro-indol-1-yl)-{3-[4-(2-methoxy-benzyl)-piperazin-1-ylmethyl]-phenyl}-methanone] | 6.98 | 6.84 | 7.00
17 | CC(C)COc1ccccc1N1CCN(Cc2cccc(C(=O)N3CCc4ccccc43)c2)CC1 [Cpd 65, (2,3-dihydro-indol-1-yl)-{3-[4-(2-isobutoxy-phenyl)-piperazin-1-ylmethyl]-phenyl}-methanone] | 7.19 | 6.04 | 7.38
